Assay results: PMC6136712, “Ex vivo drug sensitivity testing as a means for drug repurposing in esophageal adenocarcinoma” (PLoS ONE, 2018)
Where a name gives a salt, the structure may show the parent alone.

How the values were obtained:
Assay type in all cases: cell-based, human
SK-GT2 cells = test: FDA library drug sensitivity testing (CellTiter-Glo, 72 h); settings: SK-GT2; sDSSmod = DSSmod (patient cells) - DSSmod (normal cells)
Excerpt: (§1) OE33, OE19 and SKGT2 human esophageal adenocarcinoma cell lines were obtained from the European Collection of Cell Culture ([…]). Flo1, EAC42 and EAC47 cells were established in the Capobianco Laboratory. EAC42 and EAC47 human esophageal adenocarcinoma cell lines are derived from patients undergoing surgery at the Miller School of Medicine, University of Miami. The Capobianco laboratory obtained written informed consent from all patients and approval from the Institutional Research Ethics Committee.
(§2) Drug sensitivity testing (DST) was performed as described previously. […] Individual drugs were dissolved in 100% DMSO and tested in duplicates starting at a maximal test concentration of 10μM then over a 20,000-fold concentration range to generate dose response curves. Wells with assay buffer containing DMSO served as negative controls. 1000 exponentially growing cells were seeded per well in 384-well micro-titer plates and incubated in the presence of compounds in a humidified environment at 37°C and 5% CO2. After 72 hours of treatment, cell viability was assessed by measuring ATP levels via bioluminescence (CellTiter-Glo, Promega) according to manufactures recommendations. Interpretation of curve parameters was performed according to the modified drug sensitivity scoring (DSSmod) function developed by Swords et al. […] Given in this way, the sDSSmod incorporated information on each drug’s potency, efficacy, effect range and therapeutic index, making it possible to prioritize compounds over multiple parameters using a single numerical metric. […] All calculations and scoring routines are implemented in MatLab and additional curve fitting and statistical analyses are performed in GraphPad prism.

OE19 cells = test: as above; settings: sDSSmod = DSSmod (patient cells) - DSSmod (normal cells)
Excerpt: as §1, §2

OE33 cells = test: as above; settings: OE33; sDSSmod = DSSmod (patient cells) - DSSmod (normal cells)
Excerpt: as §1, §2

Flo-1 cells = test: as above; settings: Flo-1; sDSSmod = DSSmod (patient cells) - DSSmod (normal cells)
Excerpt: as §1
Drug sensitivity testing (DST) was performed as described previously. […] Individual drugs were dissolved in 100% DMSO and tested in duplicates starting at a maximal test concentration of 10μM then over a 20,000-fold concentration range to generate dose response curves. Wells with assay buffer containing DMSO served as negative controls. 1000 exponentially growing cells were seeded per well in 384-well micro-titer plates and incubated in the presence of compounds in a humidified environment at 37°C and 5% CO2. After 72 hours of treatment, cell viability was assessed by measuring ATP levels via bioluminescence (CellTiter-Glo, Promega) according to manufactures recommendations. Interpretation of curve parameters was performed according to the modified drug sensitivity scoring (DSSmod) function developed by Swords et al. As a final step, the selective DSSmod (sDSSmod) for each drug in each patient screen is calculated according to the formula sDSSmod = DSSmod (patient cells)—DSSmod (normal cells). Given in this way, the sDSSmod incorporated information on each drug’s potency, efficacy, effect range and therapeutic index, making it possible to prioritize compounds over multiple parameters using a single numerical metric. In addition, this methodology allows us to rank compounds by cancer-selective efficacy for each individual patient. […] All calculations and scoring routines are implemented in MatLab and additional curve fitting and statistical analyses are performed in GraphPad prism.

[1] = system: normal esophageal epithelium cell line EACN42; test: FDA library drug sensitivity testing (CellTiter-Glo, 72 h), normal control cells; set-up: key to DSS: modified drug sensitivity score (DSSmod) from dose-response curve fit
How it was run: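 HPV E6-E7-immortalized normal human esophageal epithelial cells, 1000 per well, exposed 72 h at 37 °C to drugs in duplicate from 10μM top concentration across a 20,000-fold range. Viability by ATP bioluminescence; DMSO wells as negative control; curves scored with modified drug sensitivity score (DSSmod).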

EAC47 cells = test: FDA library drug sensitivity testing (CellTiter-Glo, 72 h); settings: EAC47; sDSSmod = DSSmod (patient cells) - DSSmod (normal cells)
Excerpt: as §1, §2

EAC42 cells = test: as above; settings: EAC42; sDSSmod = DSSmod (patient cells) - DSSmod (normal cells)
Excerpt: as §1, §2

[2] = Homo sapiens, 72 h, EACN42 normal esophageal cells, cell viability (ATP), max test concentration 10μM
[3] = drug sensitivity score, EACN42 normal esophageal cells, 72 h
[4] = Homo sapiens; EACN42 normal esophageal cells, 72 h, cell viability (ATP), max test concentration 10μM

Row | Compound | sDSSmod (SK-GT2 cells) | sDSSmod (OE19 cells) | sDSSmod (OE33 cells) | sDSSmod (Flo-1 cells) | EC50 [1, 2] | DSS [1, 3] | sDSSmod (EAC47 cells) | sDSSmod (EAC42 cells) | EC50 [1, 4] | EC50 ([1]; EACN42 normal esophageal cells, 72 h, cell viability (ATP), max test concentration 10μM)
1 | CC(C)C[C@H](NC(=O)[C@H](CCc1ccccc1)NC(=O)CN1CCOCC1)C(=O)N[C@@H](Cc1ccccc1)C(=O)N[C@@H](CC(C)C)C(=O)[C@@]1(C)CO1 [Cartilzomib, Carfilzomib] | -44.432 | -42.8127 | -43.92 | -44.35 | 80 nM | 44.43 |  |  |  | 
2 | C/C=C(\C)C(=O)N[C@@H](c1ccccc1)[C@@H](O)C(=O)O[C@H]1C[C@@]2(O)[C@@H](OC(=O)c3ccccc3)[C@@H]3[C@]4(OC(C)=O)CO[C@@H]4C[C@H](O)[C@@]3(C)C(=O)[C@H](OC(C)=O)C(=C1C)C2(C)C [Cephalomannine] | 21.46 |  | 5.452 | 12.79 |  | 23.35 | -8.868 | -5.552 | 162 nM | 
3 | Nc1nc(Cl)nc2c1ncn2[C@@H]1O[C@H](CO)[C@@H](O)[C@@H]1F [Clofarabine] | -9.559 | -19.554 | 16.0076 |  | 70 nM | 19.89 | -10.1317 | -8.024 |  | 
4 | COc1cccc2c1C(=O)c1c(O)c3c(c(O)c1C2=O)C[C@@](O)(C(C)=O)C[C@@H]3O[C@H]1C[C@H](N)[C@H](O)[C@H](C)O1 [Daunorubicin HCl] |  | -13.6679 |  | 5.15 |  | 21.12 |  |  | 980 nM | 
5 | CC(=O)O[C@@]12CO[C@@H]1C[C@H](O)[C@@]1(C)C(=O)[C@H](O)C3=C(C)[C@@H](OC(=O)[C@H](O)[C@@H](NC(=O)OC(C)(C)C)c4ccccc4)C[C@@](O)([C@@H](OC(=O)c4ccccc4)[C@H]21)C3(C)C [Docetaxel] | 16.5247 |  |  | 8.04 | 3000 nM | 40.14 | -23.2183 | -15.5932 |  | 
6 | COc1cccc2c1C(=O)c1c(O)c3c(c(O)c1C2=O)C[C@@](O)(C(=O)CO)C[C@@H]3O[C@H]1C[C@H](N)[C@H](O)[C@H](C)O1 [Doxorubicin] | -8.365 | -12.9053 |  | 7.66 | 1420 nM | 15.67 |  |  |  | 
7 | Nc1nc(F)nc2c1ncn2[C@@H]1O[C@H](CO)[C@@H](O)[C@@H]1O [Fludarabine] | -12.4173 | -20.7262 | -9.248 |  | 70 nM | 42.19 | -42.19 | -42.0707 |  | 
8 | CCc1c2c(nc3ccc(OC(=O)N4CCC(N5CCCCC5)CC4)cc13)-c1cc3c(c(=O)n1C2)COC(=O)[C@]3(O)CC.Cl.O.O.O [Irinotecan HCl Trihydrate] | -7.5553 | -12.0524 | 12.07 |  |  | 13.38 | -6.3823 | -6.563 |  | 1570 nM
9 | CCc1c2c(nc3ccc(OC(=O)N4CCC(N5CCCCC5)CC4)cc13)-c1cc3c(c(=O)n1C2)COC(=O)[C@]3(O)CC [Irinotecan] | -5.574 | -6.34 | 5.246 |  | 5110 nM | 6.99 | -5.5855 |  |  | 
10 | O=C1c2c(O)ccc(O)c2C(=O)c2c(NCCNCCO)ccc(NCCNCCO)c21 [Mitoxantrone Hydrochloride] |  |  | 9.033 | 17.0838 | 1670 nM | 17.16 | 5.242 | 6.699 |  | 
11 | COc1c(C)c2c(c(O)c1C/C=C(\C)CCC(=O)OCCN1CCOCC1)C(=O)OC2 [Mycophenolate mofetil] |  |  | 11.03 | 5.44 | 2180 nM | 2.66 |  | 6.417 |  | 
12 | COc1c(C)c2c(c(O)c1C/C=C(\C)CCC(=O)O)C(=O)OC2 [Mycophenolic] |  |  | 16.23 | 10.92 |  | 2.17 | 5.9818 | 8.479 |  | 
13 | Cc1cn(-c2cc(NC(=O)c3ccc(C)c(Nc4nccc(-c5cccnc5)n4)c3)cc(C(F)(F)F)c2)cn1 [Nilotinib] | 27.22 | 18.74 | 32.09 | 37.8 | > 10000 nM | 0.43 |  |  |  | 
14 | CC(=O)O[C@H]1C(=O)[C@@]2(C)[C@H]([C@H](OC(=O)c3ccccc3)[C@]3(O)C[C@H](OC(=O)[C@H](O)[C@@H](NC(=O)c4ccccc4)c4ccccc4)C(C)=C1C3(C)C)[C@]1(OC(C)=O)CO[C@@H]1C[C@@H]2O [Paclitaxel] | 12.8 |  | 7.642 | 9.33 | 10 nM | 34.94 | -17.6632 | -12.1 |  | 
15 | Cc1[nH]c2ccccc2c1CCNCc1ccc(/C=C/C(=O)NO)cc1 [Panobinostat] | -40.4215 | -40.4215 | -40.4215 | -40.42 | 90 nM | 40.42 |  | 7.607 |  | 
16 | Cc1ccc(Nc2nccc(N(C)c3ccc4c(C)n(C)nc4c3)n2)cc1S(N)(=O)=O.Cl [Pazopanib HCl] |  |  | 11.37 | 8.16 |  | 0.07 |  |  |  | 
17 | Cc1ccc(C(=O)Nc2ccc(CN3CCN(C)CC3)c(C(F)(F)F)c2)cc1C#Cc1cnc2cccnn12 [Ponatinib] | -11.7711 | -11.756 | -6.155 |  |  | 11.77 | -11.7731 | -11.7731 | 2810 nM | 
18 | CCC(C)(C)C(=O)O[C@H]1C[C@@H](C)C=C2C=C[C@H](C)[C@H](CC[C@@H]3C[C@@H](O)CC(=O)O3)[C@H]21 [Simvastatin] | -5.66 | -5.647 | 26.15 |  | 3350 nM | 5.66 | -5.66 | -5.363 |  | 
19 | [Na+].[Na+].[Na+].[O]=[V]([O-])([O-])[O-] [Sodium orthovanadate] | 23.66 | 5.913 |  | 13.33 |  | 0 |  |  |  | 
20 | COc1cc([C@@H]2c3cc4c(cc3[C@@H](O[C@@H]3O[C@@H]5CO[C@@H](c6cccs6)O[C@H]5[C@H](O)[C@H]3O)[C@H]3COC(=O)[C@H]23)OCO4)cc(OC)c1O [Teniposide] |  |  | 39.45 | 10.22 | 5170 nM | 6.79 |  |  |  | 
21 | CC[C@]1(O)C[C@H]2CN(CCc3c([nH]c4ccccc34)[C@@](C(=O)OC)(c3cc4c(cc3OC)N(C=O)[C@H]3[C@@](O)(C(=O)OC)[C@H](OC(C)=O)[C@]5(CC)C=CCN6CC[C@]43[C@@H]65)C2)C1 [Vincristine] | -7.21 |  | -8.234 | 6.31 | 30 nM |  | -16.3015 | -7.92 |  | 
22 | O=P(O)(O)C(O)(Cn1ccnc1)P(=O)(O)O [Zoledronic Acid] |  |  |  | 5.26 |  | 0 | 6.526 | 9.833 |  | 
